Test results reported in patent US7923465B2, “Cannabinoid receptor ligands, pharmaceutical compositions containing them, and process for their preparation” (priority 2005, dated 2011).
Where two headings read alike, the source gives them in different places.

Tests used:
hCB2 = hCB2 (Homo sapiens, UniProt P34972); assay: In vitro binding assay using hCB2-CHO membranes, [3H]-CP-55,940 displacement (Protocol IV); parameters: expressed in transfected cells; host or cells: CHO (hCB2-CHO, generated in-house); details: 1 h, read-out: % Displacement Protocol IV
Chain of hCB2 (P34972 whole entry): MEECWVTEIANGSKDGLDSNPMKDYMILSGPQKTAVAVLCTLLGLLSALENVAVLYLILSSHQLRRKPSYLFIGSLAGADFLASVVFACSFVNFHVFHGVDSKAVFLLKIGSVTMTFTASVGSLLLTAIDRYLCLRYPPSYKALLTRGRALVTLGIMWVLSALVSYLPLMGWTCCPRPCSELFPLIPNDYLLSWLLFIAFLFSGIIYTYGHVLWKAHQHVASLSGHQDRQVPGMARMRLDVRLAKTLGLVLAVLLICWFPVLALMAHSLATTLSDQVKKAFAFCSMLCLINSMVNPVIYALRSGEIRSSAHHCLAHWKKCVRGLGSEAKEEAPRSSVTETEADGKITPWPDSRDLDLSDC
Method: IV. Protocol for In Vitro Assay Using hCB2-CHO Membranes:
In this assay, [^3H]-CP-55,940 was used as the radioligand to bind human CB2 receptor expressed on the membranes from CHO cells (hCB2-CHO cell line was generated in-house) which can be displaced by unlabeled ligands having affinity to the CB2 receptor.
The assay was performed according to the modified method of Ross et al., 1999 (Br. J. Pharmacol. 128, 735-743). The reaction was set up in a total volume of 200 μl in PEI (0.2%) precoated Millipore GFB filter plates. 1 mM stocks of test compounds were prepared in DMSO and tested at a final concentration of 300 nM. The non-specific binding was determined by 0.5 μM CP-55, 940. The total reaction mixture contained Tris-BSA buffer (50 mM Tris, 5 mM MgCl2, 1 mM EDTA, pH 7.4 with 0.1% BSA), unlabelled CP-55, 940 (0.5 μM) or test samples, [^3H]-CP-55, 940 (0.75 nM) and 25-50 μg of human CB2 receptor preparation. The assay mixture (with or without the test compound) was incubated at 30° C. for 1 hour. The reaction was stopped by rapid filtration under vacuum and the radioactivity on the filters was measured by liquid scintillation counting.
The percent (%) displacement by a test ligand was calculated by comparing the specific bound values.

[1] = hCB2-CHO membranes, [3H]-CP-55,940 displacement

| SMILES | melting point | inhibition at 0.3 µM (hCB2) | inhibition at 0.3 µM (hCB2; [1]) |
| --- | --- | --- | --- |
| CCC(C)(C)NC(=O)c1nn(-c2ccc(F)cc2F)c2c1C1CCC2C1 (stereo not shown) [Example 313, N(3)-(tert-Pentyl)-1-(2,4-difluorophenyl)-4,5,6,7-tetrahydro-1H-4,7-methano-indazole-3-carboxamide] | 78 to 80 °C | 98.2% | – |
| O=C(NCc1cccnc1)c1nn(-c2ccc(Cl)cc2)c2c1C1CC3CC(C1)CC2C3 [Example 104, N(7)-(3-Pyridylmethyl)-5-(4-chlorophenyl)-5,6-diazatetracyclo[7.3.1.1^3,11.0^4,8]tetradeca-4(8),6-diene-7-carboxamide] | 180 °C | – | 20.2% |
| CC(C)(NC(=O)c1nn(-c2ccc(F)cc2F)c2c1C1CC3CC(C1)CC2C3)c1ccccc1 [Example 148, N(7)-(1-Methyl-1-phenylethyl)-5-(2,4-difluorophenyl)-5,6-diazatetracyclo[7.3.1.1^3,11.0^4,8]tetradeca-4(8),6-diene-7-carboxamide] | 150 to 152 °C | 79.2% | – |
| CC(C)(NC(=O)c1nn(-c2ccc(F)cc2F)c2c1C1CCC2c2ccccc21)c1ccccc1 (stereo not shown) [Example 509, N12-(1-Methyl-1-phenylethyl)-10-(2,4-difluorophenyl)-10,11-diazatetracyclo[6.5.2.0^2,7.0^9,13]pentadeca-2,4,6,9(13),11-pentaene-12-carboxamide] | 175 to 178 °C | 67.2% | – |
| CC12CCC(c3c(C(=O)NNc4ncccc4Cl)nn(-c4ccc(Cl)cc4Cl)c31)C2(C)C (stereo not shown) [Example 404, N(3)-[(3-chloropyridin-2-yl)amino]-1-(2,4-Dichlorophenyl)-7,8,8-trimethyl-4,5,6,7-tetrahydro-1H-4,7-methano-indazole-3-carboxamide] | 142 to 145 °C | – | 23.8% |
| O=C(NC1(c2ccccc2)CC1)c1nn(-c2ccc(F)cc2F)c2c1C1CCC2C1 (stereo not shown) [Example 308, N5-(1-phenylcyclopropyl)-3-(2,4-difluorophenyl)-3,4-diazatricyclo[5.2.1.0^2,6]deca-2(6),4-diene-5-carboxamide] | 90 °C | 86.6% | – |
| COc1ccc(-n2nc(C(=O)NN3CCCCC3)c3c2C2CC4CC(CC3C4)C2)cc1 [Example 163, N(7)-Piperidino-5-(4-methoxyphenyl)-5,6-diazatetracyclo[7.3.1.1^3,11.0^4,8]tetradeca-4(8),6-diene-7-carboxamide] | 156 °C | – | 14.5% |
| CC12CCC(C1)C(C)(C)C2NC(=O)c1nn(-c2ccc(F)cc2F)c2c1C1CCC2C1 (stereo not shown) [Example 296, N(3)-(1,3,3-Trimethylbicyclo[2.2.1]hept-2-yl)-1-(2,4-difluorophenyl)-4,5,6,7-tetrahydro-1H-4,7-methano-indazole-3-carboxamide] | 114 to 117 °C | 95.9% | – |
| O=C(NC12CC3CC(CC(O)(C3)C1)C2)c1nn(-c2ccc(F)cc2F)c2c1C1CC3CC(C1)CC2C3 [Example 156, N7-(3-Hydroxyadamantan-1-yl)-5-(2,4-difluorophenyl)-5,6-diazatetracyclo[7.3.1.1^3,11.0^4,8]tetradeca-4(8),6-diene-7-carboxamide] | 240 to 243 °C | 89.3% | – |
| O=C(NC1C2CC3CC(C2)CC1C3)c1nn(-c2ccc(F)cc2)c2c1C1CCC2C1 (stereo not shown) [Example 281, N5-(Adamantan-2-yl)-3-(4-fluorophenyl)-3,4-diazatricyclo[5.2.1.0^2,6]deca-2(6),4-diene-5-carboxamide] | 196 to 198 °C | 97.1% | – |
| CCC(CC)(NC(=O)c1nn(-c2ccc(F)cc2F)c2c1C1CCC2C1)c1ccccc1 (stereo not shown) [Example 299, N5-(1-Ethyl-1-phenylpropyl)-3-(2,4-difluorophenyl)-3,4-diazatricyclo[5.2.1.0^2,6]deca-2(6),4-diene-5-carboxamide] | 45 to 48 °C | 77.6% | – |
| O=C(NC12CC3CC(CC(C3)C1)C2)c1nn(-c2ccc(F)cc2)c2c1C1CCC2C1 (stereo not shown) [Example 283, N5-(Adamantan-1-yl)-3-(4-fluorophenyl)-3,4-diazatricyclo[5.2.1.0^2,6]deca-2(6),4-diene-5-carboxamide] | 189 to 191 °C | 94.8% | – |
| CC12CCC(C1)C(C)(C)C2NC(=O)c1nn(-c2ccc(F)cc2F)c2c1C1CCC2(C)C1(C)C (stereo not shown) [Example 406, N(3)-(1,3,3-Trimethylbicyclo[2.2.1]hept-2-yl)-1-(2,4-difluorophenyl)-7,8,8-trimethyl-4,5,6,7-tetrahydro-1H-4,7-methano-indazole-3-carboxamide] | 171 to 173 °C | 94.3% | – |
| O=C(NC1CC1)c1nn(-c2ccc(F)cc2F)c2c1C1CCC2C1 (stereo not shown) [Example 317, N(3)-Cyclopropyl-1-(2,4-difluorophenyl)-4,5,6,7-tetrahydro-1H-4,7-methano-indazole-3-carboxamide] | 59 to 61 °C | 16.9% | – |
| C[C@@H](NC(=O)c1nn(-c2ccc(F)cc2F)c2c1C1CC3CC(C1)CC2C3)c1ccccc1 [Example 147, N(7)-(R-1-phenylethyl)-5-(2,4-difluorophenyl)-5,6-diazatetracyclo[7.3.1.1^3,11.0^4,8]tetradeca-4(8),6-diene-7-carboxamide] | 123 to 128 °C | 37.1% | – |
| O=C(NCc1ccncc1)c1nn(-c2ccc(Cl)cc2)c2c1C1CC3CC(C1)CC2C3 [Example 105, N(7)-(4-Pyridylmethyl)-5-(4-chlorophenyl)-5,6-diazatetracyclo[7.3.1.1^3,11.0^4,8]tetradeca-4(8),6-diene-7-carboxamide] | 167 to 168 °C | – | 22.4% |
| O=C(NCC1CCCO1)c1nn(-c2ccc(F)cc2F)c2c1C1CCC2C1 (stereo not shown) [Example 322, N(3)-(Tetrahydro-2-furanylmethyl)-1-(2,4-difluorophenyl)-4,5,6,7-tetrahydro-1H-4,7-methano-indazole-3-carboxamide] | 91 to 93 °C | 43.4% | – |
| CC(C)(NC(=O)c1nn(-c2ccc(F)cc2)c2c1C1CCC2C1)c1ccccc1 (stereo not shown) [Example 282, N5-(1-Methyl-1-phenylethyl)-3-(4-fluorophenyl)-3,4-diazatricyclo[5.2.1.0^2,6]deca-2(6),4-diene-5-carboxamide] | 119 to 122 °C | 92.3% | – |
| CCC(C)(C)NC(=O)c1nn(-c2ccc(F)cc2F)c2c1C1CCC2CC1 [Example 802, N(5)-(tert-Pentyl)-3-(2,4-difluorophenyl)-3,4-diazatricyclo[5.2.2.0^2,6]undeca-2(6),4-diene-5-carboxamide] | 102 to 105 °C | 100% | – |
| O=C(NCc1ccc(Cl)cc1)c1nn(-c2ccc(F)cc2F)c2c1C1CCC2C1 (stereo not shown) [Example 298, N5-(4-Chlorobenzyl)-3-(2,4-difluorophenyl)-3,4-diazatricyclo[5.2.1.0^2,6]deca-2(6),4-diene-5-carboxamide] | 121 to 125 °C | – | 11.2% |
| CC[C@H](NC(=O)c1nn(-c2ccc(F)cc2F)c2c1C1CC3CC(C1)CC2C3)c1ccccc1 [Example 152, N(7)-[(S)-1-Phenylpropyl]-5-(2,4-difluorophenyl)-5,6-diazatetracyclo[7.3.1.1^3,11.0^4,8]tetradeca-4(8),6-diene-7-carboxamide] | 127 to 129 °C | 60.3% | – |
| CC12CCC(c3c(C(=O)NNc4ccccc4F)nn(-c4ccc(Cl)cc4Cl)c31)C2(C)C (stereo not shown) [Example 402, N(3)-[(2-Fluorophenyl)amino]-1-(2,4-Dichlorophenyl)-7,8,8-trimethyl-4,5,6,7-tetrahydro-1H-4,7-methano-indazole-3-carboxamide] | 72 to 80 °C | – | 2.66% |
| CN(NC(=O)c1nn(-c2ccc(Cl)cc2Cl)c2c1C1CCC2C1)c1ccc(Cl)cc1Cl (stereo not shown) [Example 261, N(3)-[(2,4dichlorophenyl)-N-methylamino]-1-(2,4-dichlorophenyl)-4,5,6,7-tetrahydro-1H-4,7-methano-indazole-3-carboxamide] | 135 to 138 °C | – | – |
| CC(C)(NC(=O)c1nn(-c2ccc(F)cc2F)c2c1C1CC3CC(C1)CC2C3)c1ccccc1Cl [Example 153, N7-[1-(2-Chlorophenyl)-1-methylethyl]-5-(2,4-difluorophenyl)-5,6-diazatetracyclo[7.3.1.1^3,11.0^4,8]tetradeca-4(8),6-diene-7-carboxamide] | 145 to 147 °C | – | 99.5% |
| O=C(NCc1c(F)cccc1F)c1nn(-c2ccc(Cl)cc2)c2c1C1CC3CC(C1)CC2C3 [Example 115, N(7)-(2,6-Difluorobenzyl)-5-(4-chlorophenyl)-5,6-diazatetracyclo[7.3.1.1^3,11.0^4,8]tetradeca-4(8),6-diene-7-carboxamide] | 166 to 167 °C | – | – |
| C[C@@H](NC(=O)c1nn(-c2ccc(F)cc2F)c2c1C1CCC2C1)c1ccccc1 (stereo partly shown) [Example 293, N(3)-(R-1-phenylethyl)-1-(2,4-difluorophenyl)-4,5,6,7-tetrahydro-1H-4,7-methano-indazole-3-carboxamide] | 40 to 45 °C | – | – |
